Measured values from DBAASP.
In brackets after ≈: the same amount, converted by molar mass.

Key:
Test in all cases: ≥ marks a high value that may be exact or a test limit, other limits are often not marked, values filed in µg/mL are converted to µM
[1] = system: Pseudomonas aeruginosa CMCCB 1010
[2] = system: Escherichia coli ATCC 25922
Shigella dysenteriae = system: Shigella dysenteriae
[3] = system: Enterococcus faecalis ATCC 29212
Pseudomonas aeruginosa = system: Pseudomonas aeruginosa
Klebsiella pneumoniae = system: Klebsiella pneumoniae
[4] = system: Staphylococcus aureus ATCC 25923
[5] = system: Pseudomonas aeruginosa ATCC 27853
[6] = system: Franconibacter helveticus DSM 18390
[7] = system: Escherichia coli DSM 1116
[8] = system: Staphylococcus xylosus DSM 20287
[9] = system: Bacillus subtilis DSM 347
[10] = system: Salmonella enterica subsp. enterica serovar Typhimurium ATCC 14028
Escherichia coli ML-35 = system: Escherichia coli ML-35
[11] = system: Serratia marcescens ATCC 8100
[12] = system: Bordetella bronchiseptica CUN 11844-99

Row | MIC [2] [µM] | MIC [4] [µM] | MIC [6] [µM] | MIC [7] [µM] | MIC [8] [µM] | MIC [9] [µM] | Compound | further results
1 | 13 (≈ 39.7 µg/mL) | 20 (≈ 61 µg/mL) |  |  |  |  | CC[C@H](C)[C@H](NC(=O)[C@H](CC(C)C)NC(=O)[C@@H](NC(=O)[C@@H](NC(=O)[C@H](C)NC(=O)[C@@H](NC(=O)[C@H](CC(N)=O)NC(=O)[C@H](CCCCN)NC(=O)[C@H](C)NC(=O)[C@@H](NC(=O)[C@H](CC(N)=O)NC(=O)[C@H](CCCCN)NC(=O)[C@H](C)NC(=O)[C@@H](NC(=O)[C@H](CC(=O)O)NC(=O)[C@H](CCSC)NC(=O)[C@H](Cc1ccccc1)NC(=O)CN)[C@@H](C)O)C(C)C)C(C)C)C(C)C)[C@@H](C)O)C(=O)N[C@@H](CC(=O)O)C(=O)N[C@@H](CCCCN)C(=O)N[C@@H](CC(C)C)C(=O)N[C@@H](CCCN=C(N)N)C(=O)N[C@H]1CSSC[C@@H](C(=O)O)NC(=O)CNC(=O)CNC(=O)[C@H]([C@@H](C)O)NC(=O)[C@H](C(C)C)NC(=O)[C@H](CCCCN)NC1=O [GFMDTAKNVAKNVAVTLIDKLRCKVTGGC] | MIC [1]: 20 µM (≈ 61 µg/mL); MIC (Shigella dysenteriae): ≥ 50 µM; MIC [3]: 20 µM (≈ 61 µg/mL); MIC (Pseudomonas aeruginosa): 50 µM (≈ 153 µg/mL); MIC (Klebsiella pneumoniae): 50 µM (≈ 153 µg/mL); MIC [5]: 33 µM (≈ 101 µg/mL)
2 | > 128 | > 128 |  |  |  |  | CC[C@H](C)[C@H](NC(=O)[C@@H]1CCCN1C(=O)[C@H](CCCN=C(N)N)NC(=O)[C@@H]1CCCN1C(=O)CNC(=O)[C@@H]1CCCN1C(=O)[C@H](CCCN=C(N)N)NC(=O)[C@@H]1CCCN1C(=O)[C@H](Cc1ccccc1)NC(=O)[C@@H]1CCCN1C(=O)[C@H](CC(C)C)NC(=O)[C@@H]1CCCN1C(=O)[C@H](CCCN=C(N)N)NC(=O)[C@@H]1CCCN1)C(=O)O [PRPLPFPRPGPRPI] | MIC [10]: > 128 µM; MIC (Escherichia coli ML-35): ≥ 128 µM; MIC [11]: ≥ 128 µM
3 |  |  | ≥ 53.4 | ≥ 75.6 | ≥ 75.6 | 9.44 (≈ 16 µg/mL) | CC[C@H](C)[C@H](N)C(=O)N[C@@H](C)C(=O)N[C@@H](CCCCN)C(=O)N[C@H](C(=O)N[C@@H](C)C(=O)NCC(=O)N[C@@H](CCCCN)C(=O)N[C@H](C(=O)N[C@@H](C)C(=O)N[C@@H](CCCCN)C(=O)N[C@H](C(=O)N[C@@H](C)C(=O)NCC(=O)N[C@@H](CCCCN)C(=O)N[C@H](C(=O)N[C@@H](C)C(=O)N[C@@H](CCCCN)C(N)=O)[C@@H](C)CC)[C@@H](C)CC)[C@@H](C)CC)[C@@H](C)CC [IAKIAGKIAKIAGKIAK] | 

The next lines start with the compound.

Row | Compound | MIC [2] [µM] | MIC [4] [µM] | MIC [6] [µM] | MIC [7] [µM] | MIC [8] [µM] | MIC [9] [µM] | further results
4 | CC[C@H](C)[C@H](NC(=O)[C@H](CCCCN)NC(=O)CNC(=O)[C@H](C)NC(=O)[C@@H](NC(=O)[C@H](CCCCN)NC(=O)[C@H](C)NC(=O)[C@@H](NC(=O)[C@H](CCCCN)NC(=O)CNC(=O)[C@H](C)NC(=O)[C@@H](NC(=O)[C@H](CCCCN)NC(=O)[C@H](C)NC(=O)[C@@H](NC(=O)[C@H](CCCCN)NC(=O)CNC(=O)[C@H](C)NC(=O)[C@@H](NC(=O)[C@H](CCCCN)NC(=O)[C@H](C)NC(=O)[C@@H](NC(=O)[C@@H](N)CCCCN)[C@@H](C)CC)[C@@H](C)CC)[C@@H](C)CC)[C@@H](C)CC)[C@@H](C)CC)[C@@H](C)CC)C(=O)N[C@@H](C)C(N)=O [KIAKIAGKIAKIAGKIAKIAGKIA] |  |  | 0.842 (≈ 2 µg/mL) | 0.842 (≈ 2 µg/mL) | 0.842 (≈ 2 µg/mL) | 0.842 (≈ 2 µg/mL) | 
5 | CC[C@H](C)[C@H](N)C(=O)N[C@@H](C)C(=O)NCC(=O)N[C@@H](CCCCN)C(=O)N[C@H](C(=O)N[C@@H](C)C(=O)N[C@@H](CCCCN)C(=O)N[C@H](C(=O)N[C@@H](C)C(=O)NCC(=O)N[C@@H](CCCCN)C(=O)N[C@H](C(=O)N[C@@H](C)C(=O)N[C@@H](CCCCN)C(=O)N[C@H](C(=O)N[C@@H](C)C(=O)NCC(=O)N[C@@H](CCCCN)C(=O)N[C@H](C(=O)N[C@@H](C)C(=O)N[C@@H](CCCCN)C(N)=O)[C@@H](C)CC)[C@@H](C)CC)[C@@H](C)CC)[C@@H](C)CC)[C@@H](C)CC [IAGKIAKIAGKIAKIAGKIAK] |  |  | 1.37 (≈ 2.83 µg/mL) | 1.94 (≈ 4 µg/mL) | 1.37 (≈ 2.83 µg/mL) | 1.37 (≈ 2.83 µg/mL) | 
6 | CC[C@H](C)[C@H](NC(=O)[C@H](CCCCN)NC(=O)CNC(=O)[C@H](C)NC(=O)[C@@H](NC(=O)[C@H](CCCCN)NC(=O)[C@H](C)NC(=O)[C@@H](NC(=O)[C@H](CCCCN)NC(=O)CNC(=O)[C@H](C)NC(=O)[C@@H](NC(=O)[C@H](CCCCN)NC(=O)[C@H](C)NC(=O)[C@@H](NC(=O)[C@@H](N)CCCCN)[C@@H](C)CC)[C@@H](C)CC)[C@@H](C)CC)[C@@H](C)CC)C(=O)N[C@@H](C)C(N)=O [KIAKIAGKIAKIAGKIA] |  |  | 9.44 (≈ 16 µg/mL) | 6.68 (≈ 11.3 µg/mL) | ≥ 37.8 | 6.68 (≈ 11.3 µg/mL) | 
7 | NCCCC[C@H](NC(=O)[C@H](Cc1ccc(O)cc1)NC(=O)[C@H](CCCN=C(N)N)NC(=O)[C@H](CCCN=C(N)N)NC(=O)CN)C(=O)N[C@@H](CCCCN)C(=O)N[C@@H](Cc1ccccc1)C(=O)N[C@@H](CCCCN)C(=O)N[C@@H](Cc1c[nH]c2ccccc12)C(=O)N[C@@H](CCCN=C(N)N)C(=O)N[C@@H](Cc1ccccc1)C(=O)N[C@@H](CCCN=C(N)N)C(=O)NCC(=O)N[C@@H](CCCN=C(N)N)C(=O)N[C@@H](Cc1ccccc1)C(=O)N[C@@H](Cc1c[nH]c2ccccc12)C(=O)N[C@@H](Cc1ccccc1)C(=O)N[C@@H](Cc1c[nH]c2ccccc12)C(=O)NCC(N)=O [GRRYKKFKWRFRGRFWFWG] | 24 (≈ 64 µg/mL) | 12 (≈ 32 µg/mL) |  |  |  |  | MIC [12]: 6 µM (≈ 16 µg/mL)
